Experimental data as given in ChEMBL document CHEMBL1821618, “Characteristic of alkylated chalcones from Angelica keiskei on influenza virus neuraminidase inhibition” (Bioorg Med Chem Lett, 2011).

Assays:
[1] = molecular target: Neuraminidase (Influenza A virus (strain A/Brevig Mission/1/1918 H1N1) (Influenza Avirus (strain A/South Carolina/1/1918 H1N1)), UniProt Q9IGQ6); assay: Noncompetitive inhibition of Influenza A virus (A/Brevig Mission/1/1918(H1N1)) recombinant neuraminidase using 4-methylumbelliferyl-alpha-D-N-acetylneuraminic acid sodium salt hydrate solution substrate by double reciprocal Lineweaver-Burk plot and dixon plot analysis
Chain of Neuraminidase (Influenza A virus (strain A/Brevig Mission/1/1918 H1N1) (Influenza Avirus (strain A/South Carolina/1/1918 H1N1)), UniProt Q9IGQ6) (Q9IGQ6 whole entry): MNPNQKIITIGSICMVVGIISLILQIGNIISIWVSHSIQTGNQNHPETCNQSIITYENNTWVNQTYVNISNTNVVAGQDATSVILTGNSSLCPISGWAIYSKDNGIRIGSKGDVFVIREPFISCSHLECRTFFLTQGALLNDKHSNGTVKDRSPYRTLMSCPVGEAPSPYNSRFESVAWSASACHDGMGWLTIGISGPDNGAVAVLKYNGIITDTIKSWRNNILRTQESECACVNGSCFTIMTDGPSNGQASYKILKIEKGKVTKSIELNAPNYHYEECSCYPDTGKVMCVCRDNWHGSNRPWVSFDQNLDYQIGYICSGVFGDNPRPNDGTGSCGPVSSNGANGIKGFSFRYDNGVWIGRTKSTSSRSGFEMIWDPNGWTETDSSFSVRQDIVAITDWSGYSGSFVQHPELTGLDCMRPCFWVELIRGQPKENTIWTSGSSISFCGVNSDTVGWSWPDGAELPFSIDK

[2] = molecular target: Neuraminidase (Influenza A virus (strain A/Brevig Mission/1/1918 H1N1) (Influenza Avirus (strain A/South Carolina/1/1918 H1N1)), UniProt Q9IGQ6); assay: Inhibition of Influenza A virus (A/Brevig Mission/1/1918(H1N1)) recombinant neuraminidase using 4-methylumbelliferyl-alpha-D-N-acetylneuraminic acid sodium salt hydrate solution substrate by ELISA

## COc1ccc(C(=O)/C=C/c2ccc(O)cc2)c(O)c1CC=C(C)C
[1]
  Ki: 50.2 µM
[2]
  IC50: 42.1 µM

## C=C(C)C(O)CC/C(C)=C/Cc1c(O)ccc(C(=O)/C=C/c2ccc(O)cc2)c1O (configuration not stated) [XANTHOANGELOL B]
[1]
  Ki: 20.7 µM
[2]
  IC50: 22.5 µM

## C=C(C)C(O)Cc1c(OC)ccc(C(=O)/C=C/c2ccc(O)cc2)c1O (configuration not stated) [XANTHOANGELOL D]
[1]
  Ki: 14 µM
[2]
  IC50: 12.3 µM

## COc1ccc(C(=O)/C=C/c2ccc(O)cc2)c(O)c1C/C=C(\C)CCC=C(C)C [XANTHOANGELOL F]
[1]
  Ki: 123 µM
[2]
  IC50: 85.9 µM

## C=C(C)C(O)CC/C(C)=C/Cc1c(OC)ccc(C(=O)/C=C/c2ccc(O)cc2)c1O (configuration not stated) [XANTHOANGELOL G]
[1]
  Ki: 20 µM
[2]
  IC50: 24.2 µM

## COC(CC/C(C)=C/Cc1c(O)ccc(C(=O)/C=C/c2ccc(O)cc2)c1O)OC [XANTHOKEISTAL A]
[1]
  Ki: 33.5 µM
[2]
  IC50: 30.9 µM
